Experimental data: US9499493B2, “2,4-pyrimidinediamine compounds and their uses” (Rigel Pharmaceuticals, Inc., priority 2002, dated 2016)

Key:
[1] = tested on: bone marrow derived mast cells (BMMC); assay: BMMC high cell density IgE activation: hexosaminidase; assay type: cell-based, mouse; conditions: anti-IgE, second part of TABLE 1, read-out: BMMC anti-IgE hexos. IC50
In short: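 IgE-sensitized BMMC at 1-3×10^6 cells/ml preincubated 1 hour at 37° C. with compound (0.5% DMSO), then stimulated 1 hour with DNP-BSA (6× stimulus 60 ng/ml). Supernatant hexosaminidase measured with 2 mM 4-methylumbelliferyl-N-acetyl-glucosaminide substrate at 37° C., read at 5–30 minutes.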

[2] = tested on: basophil cells; assay: Basophil IgE activation: histamine release assay; assay type: cell-based, human; conditions: Basophils, anti-IgE
Protocol: (§1) The basophil activation assay was carried out using whole human peripheral blood from donors allergic to dust mites with the majority of the red blood cells removed by dextran sedimentation. Human peripheral blood was mixed 1:1 with 3% dextran T500 and RBCs were allowed to settle for 20-25 min. The upper fraction was diluted with 3 volumes of D-PBS and cells were spun down for 10 min at 1500 rpm, RT. Supernatant was aspirated and cells were washed in an equal volume MT-buffer. Finally, cells were resuspended in MT-buffer containing 0.5% DMSO in the original blood volume. 80 uL cells were mixed with 20 uL compound in the presence of 0.5% DMSO, in triplicate, in a V-bottom 96-well tissue culture plate. A dose range of 8 compound concentrations was tested resulting in a 10-point dose response curve including maximum (stimulated) and minimum (unstimulated) response. […] The cells were stimulated for 30 minutes at 37° C., 5% CO2. The plate was spun for 10 min at 1500 rpm at room temperature and 80 uL the supernatant was harvested for histamine content analysis using the histamine ELISA kit supplied by Immunotech. The ELISA was performed according to supplier's instructions.

[3] = tested on: basophil cells; assay: Basophil ionomycin activation: histamine release assay; assay type: cell-based, human; conditions: Basophils
Protocol: as §1
Assays for ionomycin-induced basophil cell degranulation were carried out as described for the Basophil IgE or Dustmite Activation Assay (Section 6.4.6, supra), with the exception that following incubation with compound, cells were stimulated with 20 μl of 2 μM ionomycin.

[4] = tested on: bone marrow derived mast cells (BMMC); assay: BMMC high cell density ionomycin activation: hexosaminidase; assay type: cell-based, mouse; conditions: second part of TABLE 1, read-out: BMMC Ionomycin hexos. IC50
[5] = Immediacy (time course) of inhibitory activity; assay type: cell-based; conditions: FIG. 5
[6] = tested on: cultured human mast cells (CHMC); assay: CHMC low cell density ionomycin activation: tryptase assay; assay type: cell-based
[7] = tested on: cultured human mast cells (CHMC); assay: CHMC high cell density IgE activation: hexos (hexosaminidase) release; assay type: cell-based; conditions: anti-IgE activation
In short: (§2)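 IgE-sensitized CHMC at 1-2×10^6 cells/ml were pretreated with compound for 1 h at 37 °C (0.5% DMSO final), then anti-IgE-stimulated for 1 h and supernatant collected. Hexosaminidase was read with a fluorogenic substrate. Pellets were re-incubated 7 h with compound before supernatant ELISAs.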

[8] = tested on: cultured human mast cells (CHMC); assay: CHMC high cell density IgE activation: histamine; assay type: cell-based; conditions: anti-IgE activation
In short: as §2

[9] = tested on: cultured human mast cells (CHMC); assay: CHMC high cell density IgE activation: TNFalpha; assay type: cell-based; conditions: anti-IgE activation; read-out: CHMC high density TNF-alpha
Protocol: Inhibition of degranulation was measured at both low and high cell density by quantifying the release of the granule specific factors tryptase, histamine and hexosaminidase. Inhibition of release and/or synthesis of lipid mediators was assessed by measuring the release of leukotriene LTC4 and inhibition of release and/or synthesis of cytokines was monitored by quantifying TNF-α, IL-6 and IL-13. Tryptase and hexosaminidase were quantified using fluorogenic substrates as described in their respective examples. […] The protocols of the various assays are provided below.
After sensitizing, cells are counted, pelleted (1000 rpm, 5-10 minutes), and resuspended at 1-2×10^6 cells/ml in MT buffer. Add 100 ul of cell suspension to each well and 100 ul of compound dilutions. The final vehicle concentration is 0.5% DMSO. Incubate at 37° C. (5% CO2) for 1 hour. After 1 hour of compound treatment, stimulate cells with 6× anti-IgE. Mix wells with the cells and allow plates to incubate at 37° C. (5% CO2) for one hour. After 1 hour incubation, pellet cells (10 minutes, 1000 RPM) and collect 200 ul per well of the supernatant, being careful not to disturb pellet. Place the supernatant plate on ice. During the 7-hour step (see next) perform tryptase assay on supernatant that had been diluted 1:500. Resuspend cell pellet in 240 ul of CM media containing 0.5% DMSO and corresponding concentration of compound. Incubate CHMC cells for 7 hours at 37° C. (5% CO2). After incubation, pellet cells (1000 RPM, 10 minutes) and collect 225 ul per well and place in −80° C. until ready to perform ELISAS. ELISAS are performed on appropriately diluted samples (determined empirically for each donor cell population so that the sample measurement falls within the standard curve) following the supplier's instructions.

[10] = tested on: bone marrow derived mast cells (BMMC); assay: BMMC high cell density IgE activation: histamine; assay type: cell-based, mouse; conditions: anti-IgE, second part of TABLE 1
In short: (§3)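 IgE-sensitized BMMC (1-3×10^6 cells/ml, MT buffer) were pretreated with compound for 1 h at 37 °C in 0.5% DMSO, then stimulated with DNP-BSA (6× stimulus, 60 ng/ml) for 1 h. Supernatant was taken, and cells were re-incubated 4–5 h in WEI-conditioned medium with compound. Mediators were quantified by ELISA.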

[11] = tested on: bone marrow derived mast cells (BMMC); assay: BMMC high cell density IgE activation: LTC4; assay type: cell-based, mouse; conditions: anti-IgE, second part of TABLE 1
In short: as §3

[12] = tested on: bone marrow derived mast cells (BMMC); assay: BMMC high cell density IgE activation: TNFalpha; assay type: cell-based, mouse; conditions: anti-IgE, second part of TABLE 1, read-out: BMMC anti-IgE TNF-alpha IC50
In short: as §3

[13] = tested on: Jurkat cells; assay: Jurkat toxicity, Cell Titer Glo assay; assay type: cell-based; conditions: 18 hours incubation
Protocol: Seed 50 μl cells (1×10^6/ml) into each well containing 50 μl compound. […] Shake plates for 1 minute to mix cells and compound. Incubate plates at 37° C. […] Next day, harvest 50 μl cells from each well, add to 50 μl Cell Titer Glo reagent ([…]). Shake plates for 1 minute. Read on luminometer.

[14] = tested on: B-cell line BJAB; assay: BJAB toxicity, Cell Titer Glo assay; assay type: cell-based; conditions: 18 hours incubation
Protocol: Seed 50 μl cells (1×10^6/ml) into each well containing 50 μl compound. The final vehicle concentration is 0.5% DMSO, 1.5% MeOH. Shake plates for 1 minute to mix cells and compound. Incubate plates at 37° C. (5% CO2) for 18 hours. Next day, harvest 50 μl cells from each well, add to 50 μl Cell Titer Glo reagent ([…]). Shake plates for 1 minute. Read on luminometer.

[15] = Sheep model of allergic asthma (Ascaris suum challenge); assay type: in vivo; conditions: aqueous suspension
Protocol: Sheep develop bronchoconstriction within minutes of exposure to inhaled antigen (Ascaris suum), with maximal airflow obstruction during the early allergic response (EAR). Release of preformed mast cell mediators is likely responsible for this early phase of airflow obstruction. […] In the sheep, AHR develops a few hours following antigen challenge, and can persist for up to 2 weeks.
In the sheep model of allergic asthma, sheep are administered aerosols of test article via an endotracheal tube, followed by an aerosol challenge with antigen extracted from the roundworm, Ascaris suum, to which the sheep are naturally allergic. Allergen challenge leads to direct bronchoconstriction (both EAR and LAR) and a persistent non-specific AHR. These three characteristics are similar to those seen in human allergic asthmatics. The activity of the test agent is determined by changes in the lung resistance (RL), which is calculated from measurements of transpulmonary pressure, flow, and respiratory volume. […] The LAR is a less pronounced increase in RL, which starts approximately 5-6 hours following allergen challenge and is resolved by 8 hours post-challenge. Twenty-four hours after the challenge, a dose response to carbachol is measured to determine the AHR, which is expressed as the dose of carbachol required to increase RL by 400% over baseline. (This measurement is referred to as the provocative concentration of carbachol that elicits a 400% increase in RL over baseline (PC400). The data are compared to historical control data for the same individual when administered a saline control aerosol and challenged with Ascaris suum.

[16] = 45 mg/sheep, pretreatment 60 min

Fc1cnc(Nc2ccc3c(c2)OC(F)(F)C(F)(F)O3)nc1Nc1ccc2c(c1)OC(F)(F)C(F)(F)O2 [R926037, N2,N4-Bis(3,4-tetrafluoroethylendioxyphenyl)-5-fluoro-2,4-pyrimidinediamine]
IC50 [1]: > 10000 nM
IC50 [2]: > 10 µM
IC50 [3]: > 10 µM
IC50 [4]: > 10 µM

CNC(=O)COc1cccc(Nc2ncc(F)c(Nc3ccc4c(c3)OCCO4)n2)c1 [R926495, N4-(3,4-Ethylenedioxyphenyl)-5-fluoro-N2-[3-(N-methylamino)carbonylmethyleneoxyphenyl]-2,4-pyrimidinediamine]
onset of inhibitory activity [5]: immediacy of the inhibitory activity
IC50 [6]: > 10 µM
IC50 [7]: 100 nM
IC50 [8]: 66 nM
IC50 [9]: 362 nM
IC50 [1]: 56 nM
IC50 [10]: 89 nM
IC50 [11]: 240 nM
IC50 [12]: 77 nM
IC50 [3]: > 10 µM
IC50 [13]: > 10 µM
IC50 [14]: > 10 µM
LAR and AHR (in words) ([15]; 45 mg/sheep, 60 minutes prior to allergen challenge): blocked
AHR (% inhibition) [15, 16]: 41%
EAR (% inhibition) [15, 16]: 33%
LAR (% inhibition) [15, 16]: 85%
EAR (in words) [15]: greatly reduced
